Results taken from patent publication US6562759B1, “Substituted phenyl uracils” (Bayer Aktiengesellschaft, priority 1999, dated 2003).

What was measured:
weeds [1] = assay: Post-emergence Test; type: in vivo; conditions: test plants of height 5-15 cm sprayed, rated after three weeks vs untreated control
Method: Post-emergence Test Solvent: 5 parts by weight of acetone Emulsifier: 1 part by weight of alkylaryl polyglycol ether To produce a suitable preparation of active compound, 1 part by weight of active compound is mixed with the stated amount of solvent, the stated amount of emulsifier is added and the concentrate is diluted with water to the desired concentration. Test plants which have a height of 5-15 cm are sprayed with the preparation of active compound such that the particular amounts of active compound desired are applied per unit area. The concentration of the spray liquor is chosen so that the particular amounts of active compound desired are applied in 1000 l of water/ha. After three weeks, the degree of damage to the plants is rated in % damage in comparison to the development of the untreated control. The figures denote: 0%=no effect (like untreated control) 100%=total destruction

weeds [2] = assay: Pre-emergence Test; type: in vivo; conditions: soil sprayed about 24 hours after sowing, rated after three weeks vs untreated control
Method: Pre-emergence Test Solvent: 5 parts by weight of acetone Emulsifier 1 part by weight of alkylaryl polyglycol ether To produce a suitable preparation of active compound, 1 part by weight of active compound is mixed with the stated amount of solvent, the stated amount of emulsifier is added and the concentrate is diluted with water to the desired concentration. Seeds of the test plants are sown in normal soil. After about 24 hours, the soil is sprayed with the preparation of active compound such that the particular amount of active compound desired is applied per unit area. The concentration of the spray liquor is chosen so that the particular amount of active compound desired is applied in 1000 litres of water per hectare. After three weeks, the degree of damage to the plants is rated in % damage in comparison to the development of the untreated control. The figures denote: 0%=no effect (like untreated control) 100%=total destruction

Cn1c(C(F)(F)F)cc(=O)n(-c2cc(C3OCCO3)c(C#N)cc2F)c1=O [Preparation Example 1, 1-[4-cyano-2-fluoro-5-(1,3-dioxolan-2-yl)-phenyl]-3,6-dihydro-2,6-dioxo-3-methyl-4-trifluoromethyl-1(2H)-pyrimidine]
activity against weeds (degree of damage to the plants) (weeds [1]): very strong activity against weeds | activity against weeds (degree of damage to the plants) (weeds [2]): very strong activity against weeds
